Results published in the kinase profiling compilation of Christmann-Franck et al. (2016).

Columns and labels:
Assay in all cases: KINOMEscan competition binding
Settings in all cases: compound 10.0 µM
DCLK3 (human) = DCLK3 (human) (UniProt Q9C098)
STK36 (human) = STK36 (human) (UniProt Q9NRP7)
PRKX (human) = PRKX (human) (UniProt P51817)
CHEK1 (human) = CHEK1 (human) (UniProt O14757)
PRKCQ (human) = PRKCQ (human) (UniProt Q04759)
FLT4 (human) = FLT4 (human) (UniProt P35916)
FES (human) = FES (human) (UniProt P07332)
EPHB2 (human) = EPHB2 (human) (UniProt P29323)
BRAF (human) = BRAF (human) (UniProt P15056)
BRAF (human), sequence (P15056 whole entry, looked up): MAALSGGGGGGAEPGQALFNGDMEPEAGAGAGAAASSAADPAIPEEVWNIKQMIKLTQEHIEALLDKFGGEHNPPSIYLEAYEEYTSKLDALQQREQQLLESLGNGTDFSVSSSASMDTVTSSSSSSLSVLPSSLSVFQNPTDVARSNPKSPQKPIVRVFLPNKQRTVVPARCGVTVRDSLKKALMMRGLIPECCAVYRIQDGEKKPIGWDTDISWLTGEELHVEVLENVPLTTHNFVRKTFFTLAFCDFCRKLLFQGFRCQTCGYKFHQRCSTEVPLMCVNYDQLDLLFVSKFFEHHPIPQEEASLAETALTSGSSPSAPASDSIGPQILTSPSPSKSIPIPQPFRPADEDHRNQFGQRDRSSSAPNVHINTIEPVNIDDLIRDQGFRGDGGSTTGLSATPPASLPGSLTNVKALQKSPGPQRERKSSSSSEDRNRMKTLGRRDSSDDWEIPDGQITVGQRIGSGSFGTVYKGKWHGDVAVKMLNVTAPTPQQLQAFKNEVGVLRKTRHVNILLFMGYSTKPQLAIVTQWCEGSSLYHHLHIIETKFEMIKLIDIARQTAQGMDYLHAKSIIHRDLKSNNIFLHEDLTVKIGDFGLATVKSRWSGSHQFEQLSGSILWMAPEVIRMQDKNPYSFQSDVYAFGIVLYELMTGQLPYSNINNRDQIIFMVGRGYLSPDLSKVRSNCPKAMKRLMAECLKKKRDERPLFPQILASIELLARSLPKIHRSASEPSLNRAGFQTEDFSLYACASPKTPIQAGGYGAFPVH

MARK2 (human) = MARK2 (human) (UniProt Q7KZI7)
MLTK (human) = MLTK (human) (UniProt Q9NYL2)
TEC (human) = TEC (human) (UniProt P42680)
SRPK1 (human) = SRPK1 (human) (UniProt Q96SB4)
MAP3K7 (human) = MAP3K7 (human) (UniProt O43318)
LIMK1 (human) = LIMK1 (human) (UniProt P53667)
RPS6KA1 KD1 (human) = RPS6KA1 KD1 (human) (UniProt Q15418)
STK3 (human) = STK3 (human) (UniProt Q13188)
STK3 (human), sequence (Q13188 whole entry, looked up): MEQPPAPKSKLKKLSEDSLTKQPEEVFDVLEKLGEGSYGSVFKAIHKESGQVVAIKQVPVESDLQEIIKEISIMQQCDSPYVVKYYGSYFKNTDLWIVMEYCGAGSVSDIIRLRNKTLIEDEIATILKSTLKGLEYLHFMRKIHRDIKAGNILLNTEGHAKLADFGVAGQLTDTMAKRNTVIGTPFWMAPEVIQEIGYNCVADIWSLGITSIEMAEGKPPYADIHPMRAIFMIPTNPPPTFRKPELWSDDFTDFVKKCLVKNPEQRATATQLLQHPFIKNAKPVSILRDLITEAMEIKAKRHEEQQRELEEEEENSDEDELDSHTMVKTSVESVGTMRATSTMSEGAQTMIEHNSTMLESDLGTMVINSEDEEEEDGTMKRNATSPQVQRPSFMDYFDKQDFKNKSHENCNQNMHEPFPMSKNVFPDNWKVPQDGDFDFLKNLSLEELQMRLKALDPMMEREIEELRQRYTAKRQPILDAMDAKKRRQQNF

VRK2 (human) = VRK2 (human) (UniProt Q86Y07)
MET (human) = MET (human) (UniProt P08581)
MAP4K2 (human) = MAP4K2 (human) (UniProt Q12851)
FGFR3 (human) = FGFR3 (human) (UniProt P22607)
MAP2K5 (human) = MAP2K5 (human) (UniProt Q13163)
MAP2K5 (human), sequence (Q13163 whole entry, looked up): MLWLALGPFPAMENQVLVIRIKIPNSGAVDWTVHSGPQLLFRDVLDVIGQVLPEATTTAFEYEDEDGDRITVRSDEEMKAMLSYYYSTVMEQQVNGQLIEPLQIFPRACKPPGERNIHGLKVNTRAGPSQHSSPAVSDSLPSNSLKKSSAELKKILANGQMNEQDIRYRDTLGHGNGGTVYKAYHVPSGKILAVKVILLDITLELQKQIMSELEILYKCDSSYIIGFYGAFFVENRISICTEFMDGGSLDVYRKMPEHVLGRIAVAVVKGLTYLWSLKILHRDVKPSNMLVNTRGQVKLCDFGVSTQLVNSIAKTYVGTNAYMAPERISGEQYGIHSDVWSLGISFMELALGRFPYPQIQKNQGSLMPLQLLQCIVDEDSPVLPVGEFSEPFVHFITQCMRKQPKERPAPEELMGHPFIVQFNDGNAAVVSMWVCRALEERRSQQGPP

PHKG2 (human) = PHKG2 (human) (UniProt P15735)
PHKG1 (human) = PHKG1 (human) (UniProt Q16816)
CDK3 (human) = CDK3 (human) (UniProt Q00526)
ALK (human) = ALK (human) (UniProt Q9UM73)
TNK1 (human) = TNK1 (human) (UniProt Q13470)
TNK1 (human), sequence (Q13470 whole entry, looked up): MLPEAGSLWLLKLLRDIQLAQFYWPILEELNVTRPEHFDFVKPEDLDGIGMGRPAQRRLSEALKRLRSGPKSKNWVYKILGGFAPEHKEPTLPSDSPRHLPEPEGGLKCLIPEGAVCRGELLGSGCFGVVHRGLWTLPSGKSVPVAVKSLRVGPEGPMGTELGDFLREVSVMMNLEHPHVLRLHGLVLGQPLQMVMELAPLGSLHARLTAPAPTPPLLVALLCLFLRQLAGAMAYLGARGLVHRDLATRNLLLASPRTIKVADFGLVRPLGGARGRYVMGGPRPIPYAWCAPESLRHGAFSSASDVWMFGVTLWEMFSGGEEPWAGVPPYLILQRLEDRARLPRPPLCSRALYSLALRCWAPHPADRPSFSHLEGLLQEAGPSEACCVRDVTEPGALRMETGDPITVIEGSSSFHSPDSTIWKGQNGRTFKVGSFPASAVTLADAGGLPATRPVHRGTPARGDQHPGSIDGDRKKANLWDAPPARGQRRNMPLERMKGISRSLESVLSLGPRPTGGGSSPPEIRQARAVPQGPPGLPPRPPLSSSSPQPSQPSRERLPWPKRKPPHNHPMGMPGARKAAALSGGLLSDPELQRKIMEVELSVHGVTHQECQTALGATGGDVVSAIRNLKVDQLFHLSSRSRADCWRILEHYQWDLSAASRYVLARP

NTRK3 (human) = NTRK3 (human) (UniProt Q16288)
CSF1R (human) = CSF1R (human) (UniProt P07333)
MAPK13 (human) = MAPK13 (human) (UniProt O15264)
MAPK13 (human), sequence (O15264 whole entry, looked up): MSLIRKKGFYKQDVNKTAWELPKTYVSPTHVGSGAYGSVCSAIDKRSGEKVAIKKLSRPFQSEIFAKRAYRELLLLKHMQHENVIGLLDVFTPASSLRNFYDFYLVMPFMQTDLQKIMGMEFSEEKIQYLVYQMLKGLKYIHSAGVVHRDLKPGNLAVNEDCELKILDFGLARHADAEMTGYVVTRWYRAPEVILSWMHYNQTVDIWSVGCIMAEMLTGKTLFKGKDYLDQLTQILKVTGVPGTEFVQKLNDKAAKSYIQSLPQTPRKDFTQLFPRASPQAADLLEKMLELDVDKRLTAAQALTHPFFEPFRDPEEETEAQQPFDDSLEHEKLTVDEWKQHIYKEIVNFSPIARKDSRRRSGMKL

CIT (human) = CIT (human) (UniProt O14578)
[1] = tested on: RET (human), P07949 [V804M]
BMPR1A (human) = BMPR1A (human) (UniProt P36894)
STK24 (human) = STK24 (human) (UniProt Q9Y6E0)
INSRR (human) = INSRR (human) (UniProt P14616)
RPS6KA4 KD2 (human) = RPS6KA4 KD2 (human) (UniProt O75676)
EPHB4 (human) = EPHB4 (human) (UniProt P54760)
EPHB3 (human) = EPHB3 (human) (UniProt P54753)
EPHB3 (human), sequence (P54753 whole entry, looked up): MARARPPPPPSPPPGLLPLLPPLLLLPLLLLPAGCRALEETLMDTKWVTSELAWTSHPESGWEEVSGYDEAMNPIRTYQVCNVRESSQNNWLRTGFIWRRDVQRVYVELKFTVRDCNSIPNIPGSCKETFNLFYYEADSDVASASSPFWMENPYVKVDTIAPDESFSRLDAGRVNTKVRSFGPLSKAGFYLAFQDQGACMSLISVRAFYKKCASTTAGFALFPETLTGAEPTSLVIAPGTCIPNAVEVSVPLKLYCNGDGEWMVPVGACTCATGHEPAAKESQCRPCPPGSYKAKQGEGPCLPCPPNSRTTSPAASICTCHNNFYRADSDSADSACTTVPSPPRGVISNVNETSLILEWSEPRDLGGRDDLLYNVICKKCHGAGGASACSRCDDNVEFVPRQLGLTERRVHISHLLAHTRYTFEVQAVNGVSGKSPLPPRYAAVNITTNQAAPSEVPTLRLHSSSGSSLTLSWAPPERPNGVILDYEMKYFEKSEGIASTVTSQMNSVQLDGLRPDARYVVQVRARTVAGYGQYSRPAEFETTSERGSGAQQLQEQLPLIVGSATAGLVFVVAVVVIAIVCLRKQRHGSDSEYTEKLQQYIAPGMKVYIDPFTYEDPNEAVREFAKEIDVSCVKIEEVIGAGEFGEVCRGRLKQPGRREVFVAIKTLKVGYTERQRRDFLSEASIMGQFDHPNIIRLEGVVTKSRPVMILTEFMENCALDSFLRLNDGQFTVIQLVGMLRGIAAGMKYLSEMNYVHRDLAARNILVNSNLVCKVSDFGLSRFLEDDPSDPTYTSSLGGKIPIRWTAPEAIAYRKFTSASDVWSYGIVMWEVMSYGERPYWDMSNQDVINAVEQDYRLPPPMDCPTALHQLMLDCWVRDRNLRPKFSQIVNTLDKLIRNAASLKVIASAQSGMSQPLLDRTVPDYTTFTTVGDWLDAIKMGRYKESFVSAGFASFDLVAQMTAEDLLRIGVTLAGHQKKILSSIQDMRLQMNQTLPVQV

CPK1 (P.falciparum) = tested on: CPK1 (P.falciparum)
PKN2 (human) = PKN2 (human) (UniProt Q16513)
PKN2 (human), sequence (Q16513 whole entry, looked up): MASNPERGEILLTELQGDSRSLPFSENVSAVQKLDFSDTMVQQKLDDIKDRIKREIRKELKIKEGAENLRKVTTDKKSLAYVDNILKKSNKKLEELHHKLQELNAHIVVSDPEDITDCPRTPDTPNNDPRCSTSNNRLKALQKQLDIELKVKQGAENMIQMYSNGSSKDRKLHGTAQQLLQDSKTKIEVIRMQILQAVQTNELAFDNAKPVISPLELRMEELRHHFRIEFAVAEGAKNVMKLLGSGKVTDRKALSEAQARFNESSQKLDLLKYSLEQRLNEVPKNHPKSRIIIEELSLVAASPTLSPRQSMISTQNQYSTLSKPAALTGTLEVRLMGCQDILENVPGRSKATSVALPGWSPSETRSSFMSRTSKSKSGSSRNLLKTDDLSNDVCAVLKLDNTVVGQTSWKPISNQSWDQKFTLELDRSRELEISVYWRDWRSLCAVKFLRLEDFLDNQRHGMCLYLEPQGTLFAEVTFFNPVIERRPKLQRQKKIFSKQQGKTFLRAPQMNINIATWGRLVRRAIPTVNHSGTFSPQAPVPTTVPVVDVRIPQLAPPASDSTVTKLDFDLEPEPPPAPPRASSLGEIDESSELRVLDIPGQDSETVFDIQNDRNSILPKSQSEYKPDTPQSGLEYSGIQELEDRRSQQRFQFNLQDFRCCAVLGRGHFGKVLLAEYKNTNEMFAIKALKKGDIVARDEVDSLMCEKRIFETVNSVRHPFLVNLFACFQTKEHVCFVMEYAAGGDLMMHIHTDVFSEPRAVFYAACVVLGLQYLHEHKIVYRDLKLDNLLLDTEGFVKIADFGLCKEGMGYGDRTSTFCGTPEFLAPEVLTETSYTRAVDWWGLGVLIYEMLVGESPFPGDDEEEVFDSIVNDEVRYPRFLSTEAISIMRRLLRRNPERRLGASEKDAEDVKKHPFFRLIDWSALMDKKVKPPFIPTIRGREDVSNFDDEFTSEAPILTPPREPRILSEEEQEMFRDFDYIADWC

PIM3 (human) = PIM3 (human) (UniProt Q86V86)

COc1cc(C(=O)N2CCC(N3CCN(C)CC3)CC2)ccc1Nc1ncc2c(n1)N(C)c1ccccc1C(=O)N2C
kinase still bound, per cent of control (DCLK3 (human)): 90%
kinase still bound, per cent of control (STK36 (human)): 97%
kinase still bound, per cent of control (PRKX (human)): 99%
kinase still bound, per cent of control (CHEK1 (human)): 100%
kinase still bound, per cent of control (PRKCQ (human)): 100%
kinase still bound, per cent of control (FLT4 (human)): 100%
kinase still bound, per cent of control (FES (human)): 84%
kinase still bound, per cent of control (EPHB2 (human)): 100%
kinase still bound, per cent of control (BRAF (human)): 81%
kinase still bound, per cent of control (MARK2 (human)): 100%
kinase still bound, per cent of control (MLTK (human)): 99%
kinase still bound, per cent of control (TEC (human)): 100%
kinase still bound, per cent of control (SRPK1 (human)): 94%
kinase still bound, per cent of control (MAP3K7 (human)): 98%
kinase still bound, per cent of control (LIMK1 (human)): 95%
kinase still bound, per cent of control (RPS6KA1 KD1 (human)): 73%
kinase still bound, per cent of control (STK3 (human)): 71%
kinase still bound, per cent of control (VRK2 (human)): 99%
kinase still bound, per cent of control (MET (human)): 100%
kinase still bound, per cent of control (MAP4K2 (human)): 100%
kinase still bound, per cent of control (FGFR3 (human)): 80%
kinase still bound, per cent of control (MAP2K5 (human)): 85%
kinase still bound, per cent of control (PHKG2 (human)): 33%
kinase still bound, per cent of control (PHKG1 (human)): 54%
kinase still bound, per cent of control (CDK3 (human)): 100%
kinase still bound, per cent of control (ALK (human)): 13%
kinase still bound, per cent of control (TNK1 (human)): 2.8%
kinase still bound, per cent of control (NTRK3 (human)): 100%
kinase still bound, per cent of control (CSF1R (human)): 98%
kinase still bound, per cent of control (MAPK13 (human)): 72%
kinase still bound, per cent of control (CIT (human)): 99%
kinase still bound, per cent of control [1]: 80%
kinase still bound, per cent of control (BMPR1A (human)): 76%
kinase still bound, per cent of control (STK24 (human)): 87%
kinase still bound, per cent of control (INSRR (human)): 97%
kinase still bound, per cent of control (RPS6KA4 KD2 (human)): 46%
kinase still bound, per cent of control (EPHB4 (human)): 100%
kinase still bound, per cent of control (EPHB3 (human)): 100%
kinase still bound, per cent of control (CPK1 (P.falciparum)): 100%
kinase still bound, per cent of control (PKN2 (human)): 95%
kinase still bound, per cent of control (PIM3 (human)): 88%

COc1cc2ncn(-c3cc(OCc4ccccc4C(F)(F)F)c(C(N)=O)s3)c2cc1OC
kinase still bound, per cent of control (DCLK3 (human)): 100%
kinase still bound, per cent of control (STK36 (human)): 76%
kinase still bound, per cent of control (PRKX (human)): 98%
kinase still bound, per cent of control (CHEK1 (human)): 100%
kinase still bound, per cent of control (FLT4 (human)): 1.4%
kinase still bound, per cent of control (FES (human)): 87%
kinase still bound, per cent of control (EPHB2 (human)): 94%
kinase still bound, per cent of control (BRAF (human)): 100%
kinase still bound, per cent of control (MARK2 (human)): 50%
kinase still bound, per cent of control (MLTK (human)): 74%
kinase still bound, per cent of control (TEC (human)): 94%
kinase still bound, per cent of control (MAP3K7 (human)): 66%
kinase still bound, per cent of control (LIMK1 (human)): 79%
kinase still bound, per cent of control (RPS6KA1 KD1 (human)): 96%
kinase still bound, per cent of control (STK3 (human)): 1.8%
kinase still bound, per cent of control (VRK2 (human)): 87%
kinase still bound, per cent of control (MET (human)): 15%
kinase still bound, per cent of control (MAP4K2 (human)): 53%
kinase still bound, per cent of control (FGFR3 (human)): 20%
kinase still bound, per cent of control (MAP2K5 (human)): 0.45%
kinase still bound, per cent of control (PHKG2 (human)): 100%
kinase still bound, per cent of control (PHKG1 (human)): 88%
kinase still bound, per cent of control (CDK3 (human)): 100%
kinase still bound, per cent of control (ALK (human)): 100%
kinase still bound, per cent of control (TNK1 (human)): 36%
kinase still bound, per cent of control (NTRK3 (human)): 93%
kinase still bound, per cent of control (MAPK13 (human)): 100%
kinase still bound, per cent of control [1]: 62%
kinase still bound, per cent of control (BMPR1A (human)): 100%
kinase still bound, per cent of control (STK24 (human)): 87%
kinase still bound, per cent of control (INSRR (human)): 100%
kinase still bound, per cent of control (RPS6KA4 KD2 (human)): 70%
kinase still bound, per cent of control (EPHB4 (human)): 87%
kinase still bound, per cent of control (EPHB3 (human)): 76%
kinase still bound, per cent of control (CPK1 (P.falciparum)): 75%
kinase still bound, per cent of control (PKN2 (human)): 39%
kinase still bound, per cent of control (PIM3 (human)): 63%

N#CCNC(=O)c1ccc(-c2ccnc(Nc3ccc(N4CCOCC4)cc3)n2)cc1
kinase still bound, per cent of control (DCLK3 (human)): 0.45%
kinase still bound, per cent of control (STK36 (human)): 95%
kinase still bound, per cent of control (PRKX (human)): 74%
kinase still bound, per cent of control (CHEK1 (human)): 100%
kinase still bound, per cent of control (PRKCQ (human)): 100%
kinase still bound, per cent of control (FLT4 (human)): 48%
kinase still bound, per cent of control (FES (human)): 100%
kinase still bound, per cent of control (EPHB2 (human)): 100%
kinase still bound, per cent of control (BRAF (human)): 74%
kinase still bound, per cent of control (MARK2 (human)): 43%
kinase still bound, per cent of control (MLTK (human)): 100%
kinase still bound, per cent of control (TEC (human)): 100%
kinase still bound, per cent of control (SRPK1 (human)): 1.6%
kinase still bound, per cent of control (MAP3K7 (human)): 49%
kinase still bound, per cent of control (LIMK1 (human)): 100%
kinase still bound, per cent of control (RPS6KA1 KD1 (human)): 100%
kinase still bound, per cent of control (STK3 (human)): 52%
kinase still bound, per cent of control (VRK2 (human)): 94%
kinase still bound, per cent of control (MET (human)): 100%
kinase still bound, per cent of control (MAP4K2 (human)): 40%
kinase still bound, per cent of control (FGFR3 (human)): 86%
kinase still bound, per cent of control (MAP2K5 (human)): 100%
kinase still bound, per cent of control (PHKG2 (human)): 23%
kinase still bound, per cent of control (PHKG1 (human)): 78%
kinase still bound, per cent of control (CDK3 (human)): 100%
kinase still bound, per cent of control (ALK (human)): 100%
kinase still bound, per cent of control (TNK1 (human)): 33%
kinase still bound, per cent of control (NTRK3 (human)): 63%
kinase still bound, per cent of control (MAPK13 (human)): 100%
kinase still bound, per cent of control (CIT (human)): 0.35%
kinase still bound, per cent of control (BMPR1A (human)): 3.6%
kinase still bound, per cent of control (STK24 (human)): 64%
kinase still bound, per cent of control (INSRR (human)): 100%
kinase still bound, per cent of control (RPS6KA4 KD2 (human)): 100%
kinase still bound, per cent of control (EPHB4 (human)): 100%
kinase still bound, per cent of control (EPHB3 (human)): 100%
kinase still bound, per cent of control (CPK1 (P.falciparum)): 100%
kinase still bound, per cent of control (PKN2 (human)): 47%
kinase still bound, per cent of control (PIM3 (human)): 100%
